Experimental data as given in patent US8247220B2, “Optical indicator for detecting bacterial pathogens” (Kimberly-Clark Worldwide, Inc., priority 2008, dated 2012).

How the values were obtained:
Salmonella = experiment: Dye-coated absorbent substrate tested with Salmonella-containing liquid; conditions: 100 microliter aliquots on dye-coated substrate
From the text: Gibraltar Labs (Fairfield, N.J.) placed 100 microliter aliquots of the solutions onto the absorbent substrate.

E. coli = experiment: Titration of microorganism spot with Reichardt's dye solution; conditions: 10^7 CFU/ml, 100 μl; dye 160 mg in 10 g acetonitrile, 10 μl aliquots
From the text: (§1) 10^7 CFU/ml of S. aureus.

S. aureus [1] = experiment: as above; conditions: 10^7 CFU/ml, 100 μl; dye 160 mg in 10 g acetonitrile, 10 μl aliquots
From the text: as §1

[2] = system: bacterial spores such as Anthracis bacillus
vegetative organism = system: vegetative organism; parameters: species or system Anthracis bacillus
autoclaved S. aureus = experiment: Autoclaved bacteria sprayed with Reichardt's dye indicator spray; conditions: S. aureus 10^6 CFU/mL autoclaved; spray 160 mg in 10 g isopropanol
Method: In order to verify that the bacterial cell wall plays a critical role in this reaction, a vial of S. aureus (10^6 CFU/mL) was autoclaved before testing with the indicator spray (160 mg Reichardt's Dye in 10 g of isopropanol). Autoclaving kills bacteria by essentially blowing the cell wall apart. The steam from the autoclave penetrates the bacteria and rips the membrane apart.

S. aureus protoplasts = experiment: Protoplasts on label coated with Reichardt's dye; conditions: 100 μL aliquot, label coated with 80 mg/10 g acetonitrile, approximately 5 minutes
Method: An additional test to verify reaction with the cell wall was performed by creating protoplasts through enzymatic digestion of the bacterial cell wall. […] Louis, Mo.) suspended in TM buffer (0.05 M Tris-HCl, pH 7.4, 20 mM MgCl2) with 15% (w/v) of sucrose (Sigma-Aldrich, St. Louis, Mo.). The reaction was carried out for one hour at 30° C., after which the solution was centrifuged at 10,000×g, and rinsed twice with TM buffer containing 13% (w/v) sucrose according to methods detailed by Taku and Fan (The Journal of Biological Chemistry, 1979). The solution containing protoplasts was reacted (100 μL aliquot) with an Avery label coated with Reichardt's dye (80 mg/10 g acetonitrile). Untreated bacteria was diluted 10 fold in the TM/13% sucrose buffer (without lysozyme) and were placed on the label as a positive control.

[3] = system: Haemophilus influenzae (ATCC # 49247); experiment: Reichardt's dye-treated samples with upper respiratory pathogens; conditions: 100 microliters
From the text: (§2) It has been observed in prior experiments that gram positive bacteria elicit a stronger de-colorization response than other types of microorganisms.

[4] = system: Moraxella lacunata (ATCC # 17972); experiment: as above; conditions: 100 microliters
From the text: as §2

[5] = system: Streptococcus pneumoniae (ATCC # 10015); experiment: as above; conditions: 100 microliters
From the text: as §2

[6] = system: Streptococcus pyogenes (ATCC # 10782); experiment: as above; conditions: 100 microliters
From the text: as §2

Rhinovirus Type 42 = experiment: Reichardt's dye-treated samples with upper respiratory viruses; conditions: compared with Salmonella bacterial control at a similar concentration
Lactobacillus = experiment: Titration of microorganism spot with Reichardt's dye solution; conditions: 10^7 CFU/ml, 100 μl; dye 160 mg in 10 g acetonitrile, 10 μl aliquots
G. vaginalis = experiment: as above; conditions: 10^7 CFU/ml, 100 μl; dye 160 mg in 10 g acetonitrile, 10 μl aliquots
P. aeruginosa = experiment: as above; conditions: 10^7 CFU/ml, 100 μl; dye 160 mg in 10 g acetonitrile, 10 μl aliquots
C. albicans = experiment: as above; conditions: 10^7 CFU/ml, 100 μl; dye 160 mg in 10 g acetonitrile, 10 μl aliquots
A. niger = experiment: as above; conditions: 10^5 CFU/mL, 100 μl; dye 160 mg in 10 g acetonitrile, 10 μl aliquots
S. aureus [7] = experiment: Standard curve on dye-coated paper, Delta E against log CFU/mL; conditions: paper coated with 80 mg/10 g acetonitrile, 100 μL aliquots, spectrophotometer CIELAB
[8] = system: Influenza A (ATCC # VR-544); experiment: Reichardt's dye-treated samples with upper respiratory viruses; conditions: compared with Salmonella bacterial control at a similar concentration
gram-positive bacteria = experiment: Visible colour change of Reichardt's dye-coated absorbent substrate, serial dilutions of bacteria; conditions: 100 μl aliquot on dye-coated substrate, colour change visible to the eye
[9] = Bacterial cell-wall components on dye-coated substrate and titration with Reichardt's dye; conditions: 5%, 1%, 0.2% (wt/wt) solutions (pure LPS 0.1%, 0.02%, 0.004%); both experimental set-ups

In the case of `[O-]c1c(-c2ccccc2)cc(-[n+]2c(-c3ccccc3)cc(-c3ccccc3)cc2-c2ccccc2)cc1-c1ccccc1` [Reichardt's dye, 4-(2,4,6-triphenylpyridinium-1-yl)-2,6-diphenylphenolate], the “de-colorization of the dye” value (Salmonella) is reported as “decolorized the dye”, the “Amount of Dye Required for Persistent Color” value (from here on “Amount of Dye Required”) (E. coli) is reported as 90 µL and the “Amount of Dye Required” value (S. aureus [1]) is reported as 90 µL. For the same compound, the “sensitivity of the dye to bacterial spores” value [2] was “not sufficiently sensitive”, the “de-colorization of the dye” value (vegetative organism) was “de-colorization occurred” and the “de-colorization of the dye” value (autoclaved S. aureus) was “no de-colorization was observed”. For the same compound, the “de-colorization of the dye” value (S. aureus protoplasts) was “minimal de-colorization”, the “de-colorization of dye-treated samples” value [3] was “de-colorized” and the “de-colorization of dye-treated samples” value [4] was “de-colorized”. The “de-colorization of dye-treated samples” value [5] was “de-colorized”, the “de-colorization of dye-treated samples” value [6] was “de-colorized” and the “de-colorization of the dye” value (Rhinovirus Type 42) was “markedly less de-colorization”. For the same compound, the “Amount of Dye Required” value (Lactobacillus) was 110 µL, the “Amount of Dye Required” value (G. vaginalis) was 90 µL and the “Amount of Dye Required” value (P. aeruginosa) was 80 µL. The “Amount of Dye Required” value (C. albicans) was 70 µL, the “Amount of Dye Required” value (A. niger) was 50 µL and the “responsiveness of the dye (Delta E)” value (S. aureus [7]) was “dose-dependent”. The “de-colorization of the dye” value [8] was “markedly less de-colorization” and the “lower limit for indication of gram-positive bacteria” value (gram-positive bacteria) was 100 CFU/ml.

For `C[C@@H](O[C@H]1[C@H](O)[C@@H](CO)OC(O)[C@@H]1N)C(=O)O` (stereo partly drawn) [Muramic acid, muramic acid], the “de-colorization of Reichardt's dye by cell-wall component” value [9] was “strongest reaction, resulting in a near instantaneous de-colorization of the dye”.
